Measured values reported in PMC7143545, “Specific NDM-1 Inhibitor of Isoliquiritin Enhances the Activity of Meropenem against NDM-1-positive Enterobacteriaceae in vitro” (International Journal of Environmental Research and Public …, 2020).

Target: T1, New Delhi metallo-β-lactamase-1 (NDM-1) (Escherichia coli, UniProt E5KIY2)
T1 construct: gene blaNDM-1; His-tagged protein (pET28a), ndm-1 from E. coli ZC-YN3
Assay: nitrocefin hydrolysis inhibition assay with purified enzyme
Type: biochemical

T1 sequence (E5KIY2 29-270 limits assumed): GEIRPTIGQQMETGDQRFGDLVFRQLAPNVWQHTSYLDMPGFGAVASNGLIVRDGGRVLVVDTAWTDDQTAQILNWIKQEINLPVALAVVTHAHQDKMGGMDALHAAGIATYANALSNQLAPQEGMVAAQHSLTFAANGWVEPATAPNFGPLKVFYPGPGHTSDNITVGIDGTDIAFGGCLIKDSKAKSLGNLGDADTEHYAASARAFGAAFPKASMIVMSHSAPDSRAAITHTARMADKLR

Question: For `O=C(/C=C/c1ccc(O[C@@H]2O[C@H](CO)[C@@H](O)[C@H](O)[C@H]2O)cc1)c1ccc(O)cc1O` [isoliquiritin], which IC50 is on record?
Answer: 92.3 µM
